The conditions of this data set: Liquid.

± gives the expanded uncertainty stated by the source.

In the case of `OCCO` [1,2-ethanediol], the vapor or sublimation pressure – broadly, the equilibrium pressure above the liquid or solid – (469.15 K) was determined as 101.32 ± 0.19 kPa.
On to `O=CN1CCOCC1` [N-formylmorpholine], for which the “vapor or sublimation pressure” value (509.95 K) worked out at 101.32 ± 0.2 kPa.

Values taken from the NIST ThermoML archive (doi:10.1021/je100081v).
